Data reported in ChEMBL document CHEMBL4732128, “Methylsulfanylpyridine based diheteroaryl isocombretastatin analogs as potent anti-proliferative agents” (Eur J Med Chem, 2021).
In brackets after ≈: the same amount, converted by molar mass. Activity calls are given as the source filed them. The rule behind the calls is not given here.

Experiments:
[1] = tested on: HeLa; test: Induction of apoptosis in human HeLa cells assessed as accumulation of cells at sub-G0/G1 phase after 24 hrs by propidium iodide staining-based flow cytometric analysis; type: functional, cell-based
[2] = tested on: HL-60; test: Induction of cell cycle arrest in human HL-60 cells assessed as accumulation of cells at S phase at 1 nM after 24 to 72 hrs by propidium iodide staining-based flow cytometric analysis; type: functional; settings: time 24-72 hrs
[3] = tested on: HT-29; test: Induction of cell cycle arrest in human HT-29 cells assessed as accumulation of cells at G2/M phase at 100 nM after 72 hrs by propidium iodide staining-based flow cytometric analysis; type: functional
[4] = tested on: HT-29; test: Induction of cell cycle arrest in human HT-29 cells assessed as accumulation of cells at G0/G1 phase at 1 nM after 24 to 72 hrs by propidium iodide staining-based flow cytometric analysis; type: functional; settings: time 24-72 hrs
[5] = tested on: HeLa; test: Induction of apoptosis in human HeLa cells assessed as increase in cell accumulation at sub-G0/G1 phase at 100 nM incubated for 48 hrs by propidium iodide staining based flow cytometry; type: functional
[6] = tested on: HeLa; test: Induction of apoptosis in human HeLa cells assessed as increase in cell accumulation at sub-G0/G1 phase at 100 nM incubated for 24 hrs by propidium iodide staining based flow cytometry; type: functional
[7] = tested on: HeLa; test: Induction of apoptosis in human HeLa cells assessed as increase in cell accumulation at sub-G0/G1 phase at 100 nM incubated for 72 hrs by propidium iodide staining based flow cytometry; type: functional
[8] = tested on: HL-60; test: Induction of apoptosis in human HL-60 cells assessed as increase in cell accumulation at sub-G0/G1 phase at 100 nM incubated for 72 hrs by propidium iodide staining based flow cytometry; type: functional
[9] = tested on: HL-60; test: Induction of apoptosis in human HL-60 cells assessed as increase in cell accumulation at sub-G0/G1 phase at 100 nM incubated for 48 hrs by propidium iodide staining based flow cytometry; type: functional
[10] = tested on: HL-60; test: Induction of cell cycle arrest in human HL-60 cells assessed as accumulation of cells at G2/M phase at 100 nM after 24 hrs by propidium iodide staining-based flow cytometric analysis; type: functional
[11] = tested on: HT-29; test: Induction of cell cycle arrest in human HT-29 cells assessed as accumulation of cells at G2/M phase after 24 hrs by propidium iodide staining-based flow cytometric analysis; type: functional
[12] = tested on: HeLa; test: Induction of cell cycle arrest in human HeLa cells assessed as accumulation of cells at S phase at 1 nM after 24 to 72 hrs by propidium iodide staining-based flow cytometric analysis; type: functional; settings: time 24-72 hrs
[13] = Aqueous solubility of the compound in pH 7.0 phosphate buffer at 2 mg incubated for 72 hrs by shake flask method; type: physicochemical
[14] = tested on: HT-29; test: Induction of cell cycle arrest in human HT-29 cells assessed as accumulation of cells at G2/M phase at 100 nM after 24 hrs by propidium iodide staining-based flow cytometric analysis; type: functional
[15] = tested on: HT-29; test: Induction of cell cycle arrest in human HT-29 cells assessed as accumulation of cells at G2/M phase at 1 nM after 24 to 72 hrs by propidium iodide staining-based flow cytometric analysis; type: functional; settings: time 24-72 hrs
[16] = tested on: HeLa; test: Induction of cell cycle arrest in human HeLa cells assessed as accumulation of cells at G2/M phase at 100 nM after 24 hrs by propidium iodide staining-based flow cytometric analysis; type: functional
[17] = tested on: HeLa; test: Induction of mitotic arrest in human HeLa cells assessed as increase in MPM-2 expression at 1 uM incubated for 24 to 48 hrs by Western blot analysis; type: functional, cell-based; settings: time 24-48 hrs
[18] = tested on: HeLa; test: Antiproliferative activity against human HeLa cells assessed as inhibition of cell growth after 72 hrs by XTT assay; type: functional, cell-based
[19] = tested on: HeLa; test: Induction of cell cycle arrest in human HeLa cells assessed as accumulation of cells at G2/M phase after 24 hrs by propidium iodide staining-based flow cytometric analysis; type: functional
[20] = target: Tubulin (Homo sapiens) (UniProt P68371+Q9H4B7+P0DPH7+P68366+Q13509+Q71U36+P04350+Q3ZCM7+P07437+P68363+Q9BQE3+Q6PEY2+Q13885+Q9BVA1+Q9BUF5); test: Induction of microtubule disruption in human HeLa cells at 1 uM measured after 24 hrs by immunofluorescence staining based confocal microscopic analysis; type: cell-based
[21] = tested on: HeLa; test: Induction of cell cycle arrest in human HeLa cells assessed as accumulation of cells at G2/M phase at 100 nM after 72 hrs by propidium iodide staining-based flow cytometric analysis; type: functional
[22] = tested on: HL-60; test: Induction of cell cycle arrest in human HL-60 cells assessed as accumulation of cells at G2/M phase at 1 nM after 24 to 72 hrs by propidium iodide staining-based flow cytometric analysis; type: functional; settings: time 24-72 hrs
[23] = tested on: HeLa; test: Induction of cell cycle arrest in human HeLa cells assessed as accumulation of cells at G2/M phase at 1 nM after 24 to 72 hrs by propidium iodide staining-based flow cytometric analysis; type: functional; settings: time 24-72 hrs
[24] = tested on: HT-29; test: Induction of cell cycle arrest in human HT-29 cells assessed as accumulation of cells at S phase at 1 nM after 24 to 72 hrs by propidium iodide staining-based flow cytometric analysis; type: functional; settings: time 24-72 hrs
[25] = tested on: HL-60; test: Induction of cell cycle arrest in human HL-60 cells assessed as accumulation of cells at G2/M phase at 100 nM after 72 hrs by propidium iodide staining-based flow cytometric analysis; type: functional
[26] = tested on: HeLa; test: Induction of cell cycle arrest in human HeLa cells assessed as accumulation of cells at Sub-G0/G1 phase at 1 nM after 24 to 72 hrs by propidium iodide staining-based flow cytometric analysis; type: functional; settings: time 24-72 hrs
[27] = tested on: HL-60; test: Antiproliferative activity against human HL-60 cells assessed as inhibition of cell growth after 72 hrs by XTT assay; type: functional, cell-based; settings: HL-60, 72 h
[28] = tested on: HEK293; test: Induction of apoptosis in human HEK293 cells; type: cell-based
[29] = tested on: HeLa; test: Induction of apoptosis in human HeLa cells assessed as increase in cleaved PARP level at 1 uM after 24 to 48 hrs by Western blot analysis; type: functional, cell-based; settings: time 24-48 hrs
[30] = tested on: HL-60; test: Induction of cell cycle arrest in human HL-60 cells assessed as accumulation of cells at Sub-G0/G1 phase at 1 nM after 24 to 72 hrs by propidium iodide staining-based flow cytometric analysis; type: functional; settings: time 24-72 hrs
[31] = tested on: HT-29; test: Antiproliferative activity against human HT-29 cells assessed as inhibition of cell growth after 72 hrs by XTT assay; type: functional, cell-based; settings: HT-29, 72 h
[32] = tested on: HT-29; test: Induction of cell cycle arrest in human HT-29 cells assessed as sum of Sub-G0/G1 and G2/M population at 1 uM after 72 hrs by propidium iodide staining based flow cytometry; type: functional
[33] = Inhibition of bovine brain tubulin polymerization incubated for 30 mins by turbidimetric assay; type: tissue-based, Bos taurus
[34] = tested on: HT-29; test: Induction of apoptosis in human HT-29 cells assessed as increase in cell accumulation at sub-G0/G1 phase at 100 nM incubated for 48 hrs by propidium iodide staining based flow cytometry; type: functional
[35] = tested on: HT-29; test: Induction of cell cycle arrest in human HT-29 cells assessed as accumulation of cells at G2/M phase at 100 nM after 48 hrs by propidium iodide staining-based flow cytometric analysis; type: functional
[36] = tested on: HT-29; test: Induction of apoptosis in human HT-29 cells assessed as increase in cell accumulation at sub-G0/G1 phase at 100 nM incubated for 72 hrs by propidium iodide staining based flow cytometry; type: functional
[37] = tested on: HT-29; test: Induction of cell cycle arrest in human HT-29 cells assessed as sum of Sub-G0/G1 and G2/M population at 10 uM after 72 hrs by propidium iodide staining based flow cytometry; type: functional
[38] = tested on: HeLa; test: Induction of cell cycle arrest in human HeLa cells assessed as accumulation of cells at G2/M phase at 100 nM after 48 hrs by propidium iodide staining-based flow cytometric analysis; type: functional
[39] = tested on: HL-60; test: Induction of cell cycle arrest in human HL-60 cells assessed as accumulation of cells at G0/G1 phase at 1 nM after 24 to 72 hrs by propidium iodide staining-based flow cytometric analysis; type: functional; settings: time 24-72 hrs
[40] = tested on: HeLa; test: Induction of cell cycle arrest in human HeLa cells assessed as accumulation of cells at G0/G1 phase at 1 nM after 24 to 72 hrs by propidium iodide staining-based flow cytometric analysis; type: functional; settings: time 24-72 hrs
[41] = tested on: HEK293; test: Induction of mitotic arrest in human HEK293 cells; type: cell-based
[42] = tested on: HT-29; test: Induction of cell cycle arrest in human HT-29 cells assessed as sum of Sub-G0/G1 and G2/M population at 1 uM after 48 hrs by propidium iodide staining based flow cytometry; type: functional
[43] = tested on: HT-29; test: Induction of cell cycle arrest in human HT-29 cells assessed as accumulation of cells at Sub-G0/G1 phase at 1 nM after 24 to 72 hrs by propidium iodide staining-based flow cytometric analysis; type: functional; settings: time 24-72 hrs
[44] = tested on: HL-60; test: Induction of cell cycle arrest in human HL-60 cells assessed as accumulation of cells at G2/M phase at 100 nM after 48 hrs by propidium iodide staining-based flow cytometric analysis; type: functional
[45] = tested on: HT-29; test: Induction of cell cycle arrest in human HT-29 cells assessed as sum of Sub-G0/G1 and G2/M population at 10 uM after 48 hrs by propidium iodide staining based flow cytometry; type: functional

Q: Which results are given for `CSc1cc(C(=NO)c2ccc3c(c2)c(C#N)cn3C)cc(Cl)n1`?
A: Activity [1]: Active; Activity [2]: inactive; Activity [3]: 4.7%; Activity [4]: inactive; Activity [5]: 35.9%; Activity [6]: 15.7%; Activity [7]: 83.3%; Activity [8]: 33.1%; Activity [9]: 22.7%; Activity [10]: 77.4%; Activity [11]: Active; Activity [12]: inactive; solubility thermodynamic at 72 h [13]: 5.1 µg/mL (≈ 14.3 µM); Activity [14]: 84.4%; Activity [15]: inactive; Activity [16]: 73.2%; Activity [17]: Active; IC50 [18]: 57 nM; Activity [19]: Active; Activity [20]: Active; Activity [21]: 4.6%; Activity [22]: inactive; Activity [23]: inactive; Activity [24]: inactive; Activity [25]: 23.3%; Activity [26]: inactive; IC50 [27]: 93 nM; Activity [28]: Non-Toxic; Activity [29]: Active; Activity [30]: inactive; IC50 [31]: 195 nM; Activity [32]: 39.1%; IC50 [33]: 200 nM; Activity [34]: 28.1%; Activity [35]: 54.9%; Activity [36]: 64.7%; Activity [37]: 40.7%; Activity [38]: 46.9%; Activity [39]: inactive; Activity [40]: inactive; Activity [41]: Toxic; Activity [42]: 91.1%; Activity [43]: inactive; Activity [44]: 39.7%; Activity [45]: 92.1%

Q: Which results are given for `C=C(c1cc(Cl)nc(SC)c1)c1ccc2c(c1)c(C=O)cn2C`?
A: Activity [1]: Active; Activity [2]: inactive; Activity [3]: 15.1%; Activity [4]: inactive; Activity [5]: 47.6%; Activity [6]: 25.2%; Activity [7]: 59.1%; Activity [8]: 32.6%; Activity [9]: 20.9%; Activity [10]: 80.1%; Activity [11]: inactive; Activity [12]: inactive; solubility thermodynamic at 72 h [13]: 6.3 µg/mL (≈ 18.4 µM); Activity [15]: inactive; Activity [16]: 56.9%; Activity [17]: Active; IC50 [18]: 72 nM; Activity [19]: Active; Activity [20]: Active; Activity [21]: 7.9%; Activity [22]: inactive; Activity [23]: inactive; Activity [24]: inactive; Activity [25]: 22%; Activity [26]: inactive; IC50 [27]: 38 nM; Activity [28]: Non-Toxic; Activity [29]: Active; Activity [30]: inactive; IC50 [31]: 876 nM; IC50 [33]: 1600 nM; Activity [35]: 11.8%; Activity [38]: 30.4%; Activity [39]: inactive; Activity [40]: inactive; Activity [41]: Toxic; Activity [43]: inactive; Activity [44]: 40.5%
